Results: US6107070A, “Human manganese superoxide dismutase proteins” (University of Florida, priority 1998, dated 2000)
Positions count from the first letter of the chain named.

Columns and labels:
Format in all cases: biochemical
[1] = target: T1, human manganese superoxide dismutase (hMn SOD) variant Y34F (Tyr 34 replaced by Phe) (Homo sapiens, UniProt P04179, Y58F); experiment: Decay of superoxide catalyzed by Y34F hMnSOD, pulse radiolysis
T1 construct: as a mature protein tagged with an extra Met at the amino terminus; made in house; host or cells: E. coli QC774 (SodA/SodB mutant), pTrc99A
T1 sequence (P04179 25-222 Y58F): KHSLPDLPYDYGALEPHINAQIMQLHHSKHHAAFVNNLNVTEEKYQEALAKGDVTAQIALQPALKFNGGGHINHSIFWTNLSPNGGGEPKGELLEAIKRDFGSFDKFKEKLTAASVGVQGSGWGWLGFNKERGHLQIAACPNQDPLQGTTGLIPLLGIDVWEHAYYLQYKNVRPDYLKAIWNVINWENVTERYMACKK
Method: Experiments were carried out at the Center for Fast Kinetics Research at the University of Texas at Austin using a 4-Mev van der Graaff accelerator. A single high-dose electron pulse was used to generate superoxide radical anions from oxygen in acqueous solutions containing 10 mM sodium formate as hydroxyl radical scavenger (Schwartz, 1981) and 50 μM EDTA in addition to buffer and enzyme. All pulse radiolysis experiments were carried out at 20 ° C. The dismutation of O2^- was followed spectrophotometrically from its absorbance at 250 nm (ε=2000M^1 cm^1, Rabani and Nielson, 1969) with a path length of 2.5 cm. Progress curves for each set of 6 to 9 experiments were averaged. Exposure to ultraviolet radiation was minimized by opening a mechanical shutter a fraction of a second before each pulse.
The kinetic mechanism of FIG. 8 used to describe the wild-type MnSOD can also describe catalysis by Y34F Mn SOD (FIG. 7), as shown by pulse radiolysis. […] In this stimulation, the breakdown of the enzyme-substrate complex for enzyme in the reduced state, represented by k3 in the scheme of FIG. 8, is much slower for Y34F compared with wild-type, whereas the values of k3 are the same for both enzymes. […] The rate constants in Y34F for actual formation of the dead-end complex itself, k5 and k5 are quite similar to those for wild-type.

[2] = target: T2, human manganese superoxide dismutase (hMn SOD) variant H30N (His 30 replaced by Asn) (Homo sapiens, UniProt P04179, H54N); experiment: Disproportionation of superoxide by H30N hMnSOD, stopped-flow, 20° C.; details: pH 9.6, 20° C.
T2 construct: as a mature protein tagged with an extra Met at the amino terminus; made in house
T2 sequence (P04179 25-222 H54N): T1 sequence (P04179 25-222 Y58F) with H30N, F34Y
Method: (§1) Experiments were based on the stabilization of KO2 in aprotic solvent and the subsequent large dilution of this solution by an aqueous solution of enzyme in a stopped-flow apparatus, as described by McClune and Fee (1978). KO2 was dissolved in a mixture of dimethyl sulfoxide and […] (2:1 by volume; Aldrich, spectrophotometric grade) with solubility of KO2 enhanced with 18-crown-6 (Valentine and Curtis, 1975). The stopped-flow spectrophotometer (Kinetic Instruments, Ann Arbor, Mich.) was capable of efficient mixing of this solution with an acqueous solution of enzyme in buffer with a dead time between 1.5 and 2.0 ms. One drive syringe (capacity 50 μl) contained the aprotic solution of O2. This was diluted fifty-fold by the contents of a second syringe (capacity 2.5 ml) which contained enzyme, EDTA, and buffer. The decay of superoxide in initial velocity experiments and progress curves was monitored by its absorption at 250 to 300 nm. Stopped-flow experiments were carried out at […]. Four or more kinetic traces were averaged to reduce noise. Steady-state parameters were obtained by least-squares analysis of such data (Leatherbarrow (1987) "Enzfitter: a nonlinear regression data analysis program for the IBM PC" Elsevier BIOSOFT, Cambridge).
(§2) In the present study, several novel hMnSOD proteins containing substitutions of His 30 (referring to the amino acid sequence of SEQ ID NO:2) were prepared by PCR site directed mutagenesis and purified by column chromatography, as described in the Materials and Methods section above, and as also described by Hsu et al. (1996) J. Biol. Chem. 271: 1768; and Hsieh et al. (1998) Biochemistry 37: 4731. In particular, His 30 was substituted with each of Ala, Asn, Ser and Gln. The resulting novel hMnSOD proteins containing a His 30 substitution were then assayed for enzymatic activity and product inhibition at 20° C. by measuring the absorbance of superoxide at 250 nm using stopped-flow spectrophotometry, as described above in the Materials and Methods section. […]

[3] = target: T3, human manganese superoxide dismutase (hMn SOD) variant H30Q (His 30 replaced by Gln) (Homo sapiens, UniProt P04179, H54Q); experiment: Disproportionation of superoxide by H30Q hMnSOD, stopped-flow, 20° C.; details: pH 9.6, 20° C.
T3 construct: as a mature protein tagged with an extra Met at the amino terminus; made in house
T3 sequence (P04179 25-222 H54Q): T1 sequence (P04179 25-222 Y58F) with H30Q, F34Y
Method: as §1, §2

[4] = target: T4, human manganese superoxide dismutase (hMn SOD) variant H30E (Homo sapiens, UniProt P04179, E155Q/H54E); experiment: Disproportionation of superoxide by H30E hMnSOD, 20° C.; details: Table 4; pH 9.4, 20° C.
T4 construct: as a mature protein tagged with an extra Met at the amino terminus; made in house
T4 sequence (P04179 25-222 H54E/E155Q): T1 sequence (P04179 25-222 Y58F) with H30E, F34Y, E131Q

[5] = Table 1, pulse radiolysis, 20° C., pH 9.6 (Guan et al., 1997)
[6] = Table 3, KINSIM fit to pulse radiolysis data, 20° C., pH 9.6

Q: For `[O]O` [superoxide], which kcat [1, 5] is on record?
A: The kcat was 3.3 ms^-1.

Q: What about the kcat /km [1, 5] of the same compound?
A: Its kcat /km is 8.7e+08 M⁻¹ s⁻¹.

Q: What about the k1 [1, 6] of the same compound?
A: The k1 was 1000 s⁻¹.

Q: What about the k2 [1, 6] of the same compound?
A: The k2 was 5000 s⁻¹.

Q: And the k4 [1, 6]?
A: Its k4 is 1000 M⁻¹ s⁻¹.

Q: What about the k5 [1, 6] of the same compound?
A: Its k5 is 200 s⁻¹.

Q: And the k-1 [1, 6]?
A: The k-1 was 2e+09 M⁻¹ s⁻¹.

Q: And the k-3 [1, 6]?
A: Its k-3 is 2e+09 M⁻¹ s⁻¹.

Q: What about the k-4 [1, 6] of the same compound?
A: Its k-4 is 10000 s⁻¹.

Q: And the k-5 [1, 6]?
A: The k-5 was 2 × 10^4.

Q: What about the “kcat /km (diffusion controlled)” value ([1]; approximate value) of the same compound?
A: Its value is ~10^9 M^-1 s^-1.

Q: And the Km ([1]; obtained from Table 3 data and eqs 5-9 of Bull et al. (1991))?
A: The Km was 4 µM.

Q: What about the kcat ([2]; Table 4) of the same compound?
A: The kcat was 2.9 ms^.1.

Q: And the “kcat /Km” value ([2]; Table 4)?
A: The value was 91 μM^.1 S^.1.

Q: What about the “ko /[E] (rate constant for the zero-order region of catalysis)” value ([2]; Table 5) of the same compound?
A: The value was 1,300 S^.1.

Q: And the kcat ([3]; Table 4)?
A: Its kcat is 1.0 ms^.1.

Q: And the “kcat /Km” value ([3]; Table 4)?
A: Its value is 43 μM^.1 S^.1.

Q: And the “ko /[E] (rate constant for the zero-order region of catalysis)” value ([3]; Table 5)?
A: Its value is 510 S^.1.

Q: What about the kcat [4] of the same compound?
A: Its kcat is 0.052 ms^.1.

Q: And the “kcat /Km” value [4]?
A: Its value is 0.63 μM^.1 S^.1.
